Data: US20110065629A1, “ENTERAL NUTRIENT” (AMINO UP CHEMICAL CO., LTD., priority 2008, published 2011)

Tested on: Dendritic cells separated from the bone marrow and spleen
Test: External appearance of dendritic cells in plastic dishes with or without LPS
Assay type: cell-based, normal mice
Details: AHCC 5 mg/ml, β-glucan 1 mg/ml
Method: Dendritic cells separated from the bone marrow and spleen of normal mice were placed in plastic dishes to measure the external appearances of dendritic cells in the case of adding only LPS so as to achieve a final concentration of 5 μg/ml and in the case of adding LPS and AHCC (final concentration: 5 mg/ml) or β-glucan (final concentration: 1 mg/ml).

## β-glucan
LPS stimulation (5 μg/ml)
  Cell morphology: Deformation
Normal condition
  Cell morphology: Spherical
